# Data reported in patent US20190060249A1 (priority 2017, published 2019).
# Columns and labels:
# ALDH1A2 = molecular target: T1, ALDH1A2 (Homo sapiens, UniProt O94788); assay: ALDH fluorescence-coupled enzymatic assay, all-trans-retinal substrate, ALDH1A2; type: biochemical
# T1 sequence (O94788 1-518): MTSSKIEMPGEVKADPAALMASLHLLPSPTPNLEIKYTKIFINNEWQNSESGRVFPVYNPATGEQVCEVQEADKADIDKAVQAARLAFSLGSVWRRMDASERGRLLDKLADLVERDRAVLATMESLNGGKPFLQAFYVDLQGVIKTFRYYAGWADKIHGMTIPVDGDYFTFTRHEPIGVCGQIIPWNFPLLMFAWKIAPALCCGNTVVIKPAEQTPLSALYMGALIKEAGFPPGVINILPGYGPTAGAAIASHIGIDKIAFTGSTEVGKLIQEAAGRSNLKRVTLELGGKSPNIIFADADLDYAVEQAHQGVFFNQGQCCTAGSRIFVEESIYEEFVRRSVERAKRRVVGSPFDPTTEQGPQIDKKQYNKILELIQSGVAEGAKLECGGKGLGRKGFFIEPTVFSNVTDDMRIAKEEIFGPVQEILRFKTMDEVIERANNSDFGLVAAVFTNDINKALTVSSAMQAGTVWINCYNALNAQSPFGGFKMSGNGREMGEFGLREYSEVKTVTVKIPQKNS
# Experimental: Assay conditions were modified from the original enzyme assay protocol above using 50 mM NaPPi buffer (pH 7.4), 2.5 mM NAD^+, 10 mM acetaldehyde or all-trans-retinal substrate with the addition of 1 U/mL diaphorase and 0.1 mM resazurin for the secondary reaction. Measurements were collected in triplicate at 25° C.
# [1] = test system: salispheres of C57BL/6 mice; assay: Organoid formation assay; type: cell-based, mouse; settings: 25 μM Alda-341, 7 d
# Experimental: Organoids, defined as having greater than or equal to 5 buds, were blindly counted and quantified as a ratio of organoid number to total number of organoids and undifferentiated spheres. 4 replicates per group. All error bars represent SEM. *=p<0.05; **=p<0.01; ***=p<0.001 (Student's t-test).
# Organoid formation assay: Spheres were dissociated in 1 mg/mL dispase (BD Biosciences) for 20 minutes and resuspended in 80% collagen, 10% 10× F12, and 10% Solution C (2.2 g NaHCO3 in 100 mL of 0.05 N NaOH and 200 mM HEPES) and combined with 60% matrigel. 200 spheres per well were plated in a Millicell cell culture insert (EMD Millipore) with sphere media. Organoids defined as having greater than or equal to 5 buds formed after 2-3 d in culture and were grown for 7 d before imaging with a BZ-X710 Keyence microscope using the z-stack function. Images were stitched together into a single image and the number of differentiated organoids and undifferentiated spheres were blindly counted and quantified as a ratio of organoid number to total number of organoids and undifferentiated spheres. Experiments were repeated at least three independent times.
# ALDH2 = molecular target: T2, ALDH2 (Homo sapiens, UniProt P05091); assay: ALDH enzymatic assay, recombinant ALDH2; type: biochemical; settings: 5 μg/ml recombinant enzyme, 10 mM acetaldehyde, 20 μM Alda-341
# T2 sequence (P05091 18-517): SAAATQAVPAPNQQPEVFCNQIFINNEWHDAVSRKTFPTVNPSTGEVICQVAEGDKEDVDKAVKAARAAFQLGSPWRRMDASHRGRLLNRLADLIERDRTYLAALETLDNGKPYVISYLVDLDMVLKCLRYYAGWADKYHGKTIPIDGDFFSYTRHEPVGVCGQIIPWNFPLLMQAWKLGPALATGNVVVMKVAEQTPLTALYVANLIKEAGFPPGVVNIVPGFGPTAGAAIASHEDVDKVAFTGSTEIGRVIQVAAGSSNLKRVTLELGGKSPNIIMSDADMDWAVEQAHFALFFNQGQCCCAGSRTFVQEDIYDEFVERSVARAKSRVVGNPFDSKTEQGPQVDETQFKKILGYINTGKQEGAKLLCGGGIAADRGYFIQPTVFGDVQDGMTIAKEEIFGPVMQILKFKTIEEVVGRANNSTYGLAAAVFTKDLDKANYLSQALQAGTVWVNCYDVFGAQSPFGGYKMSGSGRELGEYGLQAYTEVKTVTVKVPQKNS
# Experimental: (§1) ALDH enzymatic assay: ALDH1A1, ALDH1A2, 2, 3A1, 3A2, 4A1, 5A1, 7A1 were measured as previously described using 5 μg/ml of recombinant protein (Chen, C. H., Cruz, L. A., and Mochly-Rosen, D. (2015) Pharmacological recruitment of aldehyde dehydrogenase 3A1 (ALDH3A1) to assist ALDH2 in acetaldehyde and ethanol metabolism in vivo. Proceedings of the National Academy of Sciences of the United States of America 112, 3074-3079). […] Assays were conducted in 50 mM NaPPi buffer (pH 7.4) in the presence of 2.5 mM NAD^+ and 10 mM substrate and measured in triplicate at 25° C. Dose response curve fits and EC50's were calculated using GraphPad Prism 7 software.
# ALDH1A1 = molecular target: T3, ALDH1A1 (Homo sapiens, UniProt P00352); assay: ALDH enzymatic assay, recombinant ALDH1A1; type: biochemical; settings: 5 μg/ml recombinant enzyme, 10 mM acetaldehyde, 20 μM Alda-341
# T3 sequence (P00352 1-501): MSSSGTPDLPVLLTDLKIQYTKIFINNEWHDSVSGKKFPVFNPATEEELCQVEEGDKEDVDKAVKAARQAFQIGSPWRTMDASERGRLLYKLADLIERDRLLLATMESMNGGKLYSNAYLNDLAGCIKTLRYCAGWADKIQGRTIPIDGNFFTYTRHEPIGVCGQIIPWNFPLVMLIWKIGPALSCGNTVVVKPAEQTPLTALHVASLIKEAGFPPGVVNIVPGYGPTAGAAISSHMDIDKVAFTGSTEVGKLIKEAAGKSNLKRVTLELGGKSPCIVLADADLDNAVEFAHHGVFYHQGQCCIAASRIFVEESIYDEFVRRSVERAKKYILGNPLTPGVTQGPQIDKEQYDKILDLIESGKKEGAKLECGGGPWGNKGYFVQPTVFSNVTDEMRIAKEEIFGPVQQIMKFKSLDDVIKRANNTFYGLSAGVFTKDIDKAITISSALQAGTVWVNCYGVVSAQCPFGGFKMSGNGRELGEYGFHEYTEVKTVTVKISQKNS
# Experimental: as §1
# ALDH3A2 = ALDH3A2 (Homo sapiens, UniProt P51648); assay: ALDH enzymatic assay, recombinant ALDH3A2; type: biochemical; settings: 5 μg/ml recombinant enzyme, 10 mM acetaldehyde, 20 μM Alda-341
# ALDH3A2, sequence (P51648 whole entry): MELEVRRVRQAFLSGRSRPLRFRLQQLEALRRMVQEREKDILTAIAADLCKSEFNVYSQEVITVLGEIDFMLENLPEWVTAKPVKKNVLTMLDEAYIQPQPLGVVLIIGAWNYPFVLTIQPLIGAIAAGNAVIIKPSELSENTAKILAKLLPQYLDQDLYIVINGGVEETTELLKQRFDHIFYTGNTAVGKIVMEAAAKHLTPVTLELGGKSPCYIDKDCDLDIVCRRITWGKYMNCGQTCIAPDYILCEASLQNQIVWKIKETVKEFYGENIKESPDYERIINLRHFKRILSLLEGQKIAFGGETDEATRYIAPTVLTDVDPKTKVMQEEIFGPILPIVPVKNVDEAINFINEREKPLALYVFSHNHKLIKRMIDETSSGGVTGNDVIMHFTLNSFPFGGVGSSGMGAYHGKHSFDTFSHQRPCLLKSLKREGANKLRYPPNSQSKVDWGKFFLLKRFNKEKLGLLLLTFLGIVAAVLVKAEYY
# Experimental: as §1
structure (smiles),measurement,setting,value
"C=C(C)[C@H]1CC=C(C)CC1 [Alda-341, D-limonene]",catalytic activity of all trans-retinal in ALDH1A2,ALDH1A2,did not increase
same,more organoids than vehicle-treated control,[1],25%
same,catalytic activity of ALDH2,ALDH2,did not increase
same,catalytic activity of ALDH1A1,ALDH1A1,did not increase
same,catalytic activity of ALDH3A2,ALDH3A2,did not increase
